Source: US12673939B2, “Methods of synthesis of heteroaryl derivatives of triazolyl acrylamides and crystalline forms” (Karyopharm Therapeutics Inc., priority 2021, dated 2026)

Experiment: Dynamic vapor sorption (DVS) moisture sorption isotherm
Format: physicochemical
Details: reversible; from 0 to 90% RH; 25° C.
Method: The crystalline Form I provided can be additionally characterized by dynamic vapor sorption (DVS), wherein a sample is subjected to varying conditions of humidity and temperature, and the response of the sample is measured gravimetrically. The result of a DVS analysis particularly can be a dual curve providing sample weight percent as a function of relative humidity (RH) over time, a dual curve providing sample water content as a function of RH over time, a curve providing weight percent in relation to RH, or a curve providing water content in relation to RH. Equipment useful for measuring such data is known in the art, and any such equipment can be used to measure the compounds according to the present disclosure. In certain embodiments, DVS analysis can be carried out by scanning at a series of specific RH values. […]
Sorption isotherms were obtained using a SMS DVS Intrinsic moisture sorption analyser, controlled by DVS Intrinsic Control software v1.0.1.2 (or v 1.0.1.3). […] The relative humidity (RH) was measured by a calibrated Rotronic probe (dynamic range of 1.0-100% RH), located near the sample. The weight change, (mass relaxation) of the sample as a function of % RH was constantly monitored by the microbalance (accuracy±0.005 mg). […]
The sample was recovered after completion of the isotherm and re-analyzed by XRPD.

NC(=O)/C(=C/n1cnc(-c2cc(C(F)(F)F)cc(C(F)(F)F)c2)n1)c1cncnc1 [Crystalline Form I, (E)-3-(3-(3,5-bis(trifluoromethyl)phenyl)-1H-1,2,4-triazol-1-yl)-2-(pyrimidin-5-yl)acrylamide]
water adsorption (dynamic vapor sorption): 0.12 % w/w
